# Values of other authors as cited in patent publication US11395811B2, “Compositions comprising a fatty acid oil mixture comprising EPA and DHA in free acid form and a surfactant, and methods and uses thereof” (ProNova BioPharma Norge AS, priority 2009, dated 2022).
# Conditions: Brij surfactants, Table 2
row,Substance,HLB Value
1,Polyoxyethylene (2) oleyl ether [Brij ® 93],4
2,polyethylene glycol oleyl ether [Brij ® 96V],12.4
3,polyoxyethylene (2) stearyl ether [Brij ® 72],4.9
4,Polyoxyethylene (2) oleyl ether [Brij ® 92V],4.9
5,Polyoxyethylene(4) lauryl ether [Brij ® 30],9.7
6,polyoxyethylene (100) stearyl ether [Brij ® 700],18
7,Polyoxyethylene (2) cetyl ether [Brij ® 52],5.3

# Same assay, conditions: Myrj surfactants, Table 5
row,Substance,HLB Value
1,polyoxyethylene monostearate [Myrj ® 52],16.9
2,polyoxyethylene monostearate [Myrj ® 53],17.9
3,polyoxyethylene monostearate [Myrj ® 45],11.1
4,polyoxyethylene monostearate [Myrj ® 49],15.0

# Same assay, conditions: Tween surfactants, Table 4
row,Substance,HLB Value
1,polyoxyethylene (20) sorbitan monolaurate [Tween ® 20],16.0
